{"source": "BindingDB's records for patent US12037345", "about": "(Taiho Pharmaceutical, 2024)", "target": "T1, Tyrosine-protein phosphatase non-receptor type 11 (Homo sapiens, UniProt Q06124)", "T1 sequence (Q06124 whole entry)": "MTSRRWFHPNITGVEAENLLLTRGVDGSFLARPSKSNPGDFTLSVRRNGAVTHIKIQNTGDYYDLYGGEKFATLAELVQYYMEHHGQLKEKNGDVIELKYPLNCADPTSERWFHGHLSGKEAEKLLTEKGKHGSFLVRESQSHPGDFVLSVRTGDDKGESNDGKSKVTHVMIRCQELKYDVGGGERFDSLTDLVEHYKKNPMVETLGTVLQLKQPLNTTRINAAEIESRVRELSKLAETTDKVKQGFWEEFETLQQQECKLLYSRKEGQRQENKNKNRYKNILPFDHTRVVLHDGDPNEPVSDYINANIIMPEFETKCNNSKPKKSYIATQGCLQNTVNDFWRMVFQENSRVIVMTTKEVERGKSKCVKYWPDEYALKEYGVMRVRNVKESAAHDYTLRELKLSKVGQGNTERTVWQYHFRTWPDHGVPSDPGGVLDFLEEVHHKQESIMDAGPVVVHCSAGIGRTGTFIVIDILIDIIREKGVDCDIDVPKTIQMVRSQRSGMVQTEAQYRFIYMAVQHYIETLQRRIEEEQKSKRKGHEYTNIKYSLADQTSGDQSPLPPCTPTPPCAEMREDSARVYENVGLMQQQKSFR", "test": "SHP2 Biochemical Assay", "protocol": "SHP2 activity was monitored by measuring the conversion of the surrogate substrate 6,8-difluoromethylumbelliferyl phosphate (DiFMUP) to the fluorescent product, 6,8-difluoromethylumbelliferone (DiFMU).SHP2 was pre-incubated with test compounds and the activating peptide pIRS1 (H2N-LN(pY)IDLDLV-(PEG)8-LST(pY)ASINFQK-amide) for 30 min, prior to addition of the 6,8-difluoromethylumbelliferyl phosphate (DiFMUP), (Thermo Fisher D6567). Final assay concentrations were 10 pM SHP2, […] pIRS1 peptide, 50 μM DiFMUP, 25 mM Bis-Tris propane, pH 7.0, 150 mM NaCl, 0.05% (v/v) Tween-20, 0.5 mM TCEP and 5% (v/v) DMSO. Rates of reaction were then measured over 30 min by monitoring fluorescence on a BMG Pherastar reader at excitation 360 nm/emission 450 nm. IC50 values were calculated in singlicate from the normalized dose-response plots using four parameter logistic curve fit. The Experiment for each compound was carried out in one time or multiple times, and the IC50 values were shown as a single value (for a compound measured in a single experiment) or an average value (for a compound measured in multiple experiments)."}
{"compound": "Cn1c(N2[C@H]3CC[C@@H]2[C@H](N)C3)nc2[nH]cc(-c3ccc4ncsc4c3Cl)c2c1=O", "note": "[US12037345, Example 101]", "values": [{"measurement": "IC50", "value": 1.5, "unit": "nM"}]}
